From patent US7115642B2, “Substituted diphenyl isoxazoles, pyrazoles and oxadiazoles useful for treating HCV infection” (priority 2003, dated 2006) come the findings set out here.

The test system of data set [1] is HCV replicon (5-2 Luc replicon-comprising cells). Kind of data set: HCV replicon assay (luciferase). Particulars: Hepatitis C virus; 5-2 Luc replicon cells, luciferase readout; read-out: Replicon IC50. The data set is classed as cell-based, Hepatitis C virus. In outline: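 Readout: IC50 from a 50% drop in luciferase signal (Bright-Glo, luminometer), scored + (≤10 μM) or − (>10 μM). Compounds added at various concentrations to 5-2 Luc replicon cells (Huh7 background), pre-incubated 24 h, then incubated 24 h more before reading.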
(In antiviral work, replicon cells carry a viral genome segment that copies itself.)

Data set [2] is described as follows: Cytotoxicity assay (Cell Titer Glo). The note with it: human; 48 hr with compound, ATP-dependent Cell Titer Glo assay; read-out: IC50 in cytotoxicity assay (number of viable cells). In kind it is cell-based. Here is the method: Compounds 67, 167, 169, 13, 1, 145, 29, 119, 63, 31, 39, 103, 123, 121, 97, 129, 79, 111, 85, 89, 109, 127, 131, 95, 47, 57, 69, 165, 161, 163, 3, 137, 15, 141, 41, 53, 33, 113, 93, 105, 77, 91, 81, 83, 35, 27, 65, 7, 135, 51, 139, 51, 49, 143, 5, 149, 11, 37, 21, 45, 61, 75, 23, 125, 73, 43, 171 and 101 were tested in a cytotoxicity assay with liver cells including an HCV replicon (5-2 Luc cells, 9–13 cells or Huh-7 cells). In the assay, cells were seeded onto 96-well plates (approx. 7500 cells/well in a volume of 90 μl) and grown for 24 hr at 37° C. On day 2, various concentrations of test compound (in a volume of 10 μl) were added to the wells and the cells were grown for an additional 48 hr at 37° C. On day 4, an ATP-dependent R-Luciferase assay (Cell Titer Glo assay) was performed to determine the number of viable cells.

A word on the IC50: it is the concentration that inhibits the measured activity by half. In the case of `O=C(Nc1cccc(-c2cc(-c3c(F)cccc3I)no2)c1)C(Cl)Cl` [Compound 49, 2,2-Dichloro-N-[3-[3-(2-fluoro-6-iodophenyl)-5-isoxazolyl]phenyl]Acetamide], the IC50 in data set [1] was less than 10 µM. In data set [2], the IC50 at 48 h is greater than 10 µM.

Consider `Cc1ccc(-c2cc(-c3c(Cl)cccc3Cl)no2)cc1NC(=O)C(Cl)Cl` [Compound 165, 2,2-Dichloro-N-[3-[3-(2,6-dichlorophenyl)-5-isoxazolyl]-6-methylphenyl]Acetamide], for which the half-inhibitory concentration (IC50) in data set [1] was greater than 10 µM. The IC50 at 48 h in data set [2] was greater than 10 µM.

Take `Cc1ccc(Cl)c(-c2cc(-c3cccc(NC(=O)C(Cl)Cl)c3)on2)c1F` [Compound 51, 2,2-Dichloro-N-[3-[3-(6-chloro-2-fluoro-3-methylphenyl)-5-isoxazolyl]phenyl]Acetamide]: the IC50 in data set [1] was less than 10 µM. Moreover, the IC50 at 48 h in data set [2] was greater than 10 µM.

With `O=C(Nc1cccc(-c2cc(-c3c(F)cccc3C(F)(F)F)no2)c1)C(Cl)Cl` [Compound 41, 2,2-Dichloro-N-[3-[3-(2-fluoro-6-trifluoromethylphenyl)-5-isoxazolyl]phenyl]Acetamide], the IC50 in data set [1] is less than 10 µM. Further, in data set [2], the IC50 at 48 h is greater than 10 µM.

In the case of `O=C(Nc1cccc(-c2cc(-c3ccccc3OC(F)(F)F)no2)c1)C(Cl)Cl` [Compound 113, 2,2-Dichloro-N-[3-[3-(2-trifluoromethoxyphenyl)-5-isoxazolyl]phenyl]Acetamide], the concentration for half-maximal inhibition (IC50) in data set [1] is less than 10 µM. In data set [2], the IC50 at 48 h was greater than 10 µM.

Take `CC(C)c1cccc(C(C)C)c1-c1cc(-c2cccc(NC(=O)C(Cl)Cl)c2)on1` [Compound 121, 2,2-Dichloro-N-[3-[3-(2,6-diisopropylphenyl)-5-isoxazolyl]phenyl]Acetamide]: the concentration for half-maximal inhibition (IC50) in data set [1] is less than 10 µM. Further, the IC50 at 48 h in data set [2] is greater than 10 µM.

With `Cc1cccc(C)c1-c1cc(-c2cccc(NC(=O)C(Cl)Cl)c2)on1` [Compound 47, 2,2-Dichloro-N-[3-[3-(2,6-dimethylphenyl)-5-isoxazolyl]phenyl]Acetamide], in data set [1], the IC50 was less than 10 µM. Besides, the IC50 at 48 h in data set [2] was greater than 5 µM.

Consider `COc1cccc(C)c1-c1cc(-c2cccc(NC(=O)C(Cl)Cl)c2)on1` [Compound 91, 2,2-Dichloro-N-[3-[3-(2-methoxy-6-methylphenyl)-5-isoxazolyl]phenyl]Acetamide], for which, in data set [1], the 50% inhibitory concentration (IC50) is less than 10 µM. In data set [2], the IC50 at 48 h was greater than 10 µM.

In the case of `O=C(Nc1cccc(-c2cc(-c3c(C4CC4)cccc3C(F)(F)F)no2)c1)C(Cl)Cl` [Compound 89, 2,2-Dichloro-N-[3-[3-(2-cyclopropyl-6-trifluoromethylphenyl)-5-isoxazolyl]phenyl]Acetamide], the IC50 in data set [1] was less than 10 µM. Also, in data set [2], the IC50 at 48 h was greater than 10 µM.

In the case of `O=C(Nc1cccc(-c2cc(-c3ccccc3OC(F)F)no2)c1)C(Cl)Cl` [Compound 45, 2,2-Dichloro-N-[3-[3-(2-difluoromethoxyphenyl)-5-isoxazolyl]phenyl]Acetamide], in data set [1], the IC50 was less than 10 µM. The IC50 at 48 h in data set [2] was greater than 10 µM.

Take `CC(C)Oc1ccccc1-c1cc(-c2cccc(NC(=O)C(Cl)Cl)c2)on1` [Compound 119, 2,2-Dichloro-N-[3-[3-(2-isopropyloxyphenyl)-5-isoxazolyl]phenyl]Acetamide]: the IC50 in data set [1] was less than 10 µM. The IC50 at 48 h in data set [2] is greater than 10 µM.

On to `CN1CCN(c2cccc(C(F)(F)F)c2-c2cc(-c3cccc(NC(=O)C(Cl)Cl)c3)on2)CC1` [Compound 109, 2,2-Dichloro-N-[3-[3-[2-trifluoromethyl-6-(4-methylpiperazino)phenyl]-5-isoxazolyl]-phenyl]Acetamide], for which, in data set [1], the IC50 was less than 10 µM. In data set [2], the IC50 at 48 h was greater than 10 µM.

For the compound `COc1cccc(C(F)(F)F)c1-c1cc(-c2cccc(NC(=O)C(Cl)Cl)c2)on1` [Compound 77, 2,2-Dichloro-N-[3-[3-(2-methoxy-6-trifluoromethylphenyl)-5-isoxazolyl]phenyl]Acetamide], the IC50 in data set [1] is less than 10 µM. For the same compound, the concentration for half-maximal inhibition (IC50) at 48 h in data set [2] was greater than 10 µM.
